Test results: patent US7951777B2, “Compositions and methods for treatment of cardiovascular disease” (Vectus Biosystems Limited, priority 2004, dated 2011)
Entries after “also recorded” stand apart in the source; their conditions may differ.

What was measured:
SHR and WKY rats = assay: Preliminary four-week VIP infusion in rat models of myocardial fibrosis; type: in vivo; details: VIP 7.2 nmol/kg/day via Alzet mini pump for four weeks, compared to control groups
Text: Further preliminary experiments have been conducted on a number of animal models, which encompass a range of fibrous tissue replacement, varying from mild to moderate to severe. The experiments on the animal models encompassed a variety of aetiologies (alone and in combination) and a range of levels of induced fibrosis. For these experiments two types of rats were used, spontaneously hypertensive rats (SHR) and normotensive control Wistar-Kyoto rats (WKY). The WKY rats were given: 1) low salt diet, 2) high salt diet, or 3) L-NAME (ω-monomethyl-nitro-L-arginine; 10 mg/kg/day) plus high salt diet. The SHR rats were given low or high salt diets. The effect of VIP infusion in diabetic heart disease was also studied in the WKY rate with streptozotocin induced diabetes.
In each treatment group, rats were randomised to VIP (SEQ ID No. 1) or vehicle infusion (n=24 in each group) for four weeks. VIP was administered via Alzet mini pump at a rate of 7.2 nmol/kg/day.
After four weeks, the rats were anaesthetised and the hearts were harvested. Myocardial VIP concentrations and myocardial fibrosis were quantitated.

WKY rats = assay: Acute VIP infusion, uptake of VIP by the myocardium; type: in vivo, rat
Description: In preliminary studies a series of acute infusion experiments have been conducted in animal models.
Fourteen week old WKY rats were randomised to low salt diet (0.008%), intermediate salt diet (2.2%), high salt diet (4.4%) or high salt diet plus L-NAME (10 mg/kg/day) in the drinking water for 4 weeks (n=16 rats per group). On the day of the experiment the rats were anaesthetised and venous and arterial cannulae inserted. After a one hour rest equilibration period the rats were randomised to vehicle control (Haemaccell, Aventis) or VIP (10 pmol/kg/min) infusion (SEQ ID No. 1) for one hour at an infusion rate of 0.017 ml/min. The hearts were then harvested, myocardial VIP concentrations were measured and myocardial fibrosis quantitated.
The difference between the mean myocardial VIP concentrations after VIP or control infusion is a measure of VIP uptake by the heart.
(§1) VIP was measured by radioimmunoassay in known manner (see Davis R. E., Shelley S., Macdonald G. J. & Duggan K. A. (1992) The effects of a high sodium diet on the metabolism and secretion of vasoactive intestinal peptide in the rabbit. J. Physiol. 451:17-23. Duggan K. A., Ye V. Z. C., Jones D. M. Davis R. E. & Macdonald G. J. (1995) Effects of Endopeptidase 24.11 blockade on plasma and tissue concentrations of vasoactive intestinal peptide Clin. Sci. 89:267-271). […]

[1] = tested on: WKY rat fed a high salt diet; assay: VIP infusion in model of myocardial fibrosis: high salt diet; type: in vivo
Description: (§2) Three animal models of myocardial fibrosis were used (animals obtained from Australian Animal Resources, Perth, Western Australia, Australia) • i) WKY rat fed a high salt diet • ii) WKY rat fed a high salt diet and given L-NAME (ω-monomethyl-nitro-L-arginine, Sigma Chemical Co.) 10 mg/kg/day in the drinking water • iii) WKY rats with diabetes induced by streptozotocin injection 60 mg/kg
(§3) In each model the rats were randomised to VIP (H-[…]NH2, (SEQ ID No. 1) obtained from Auspep, Australia) or vehicle control (Haemaccel, Aventis) infusion for 4 weeks via Alzet minipump (n=6-8 each experimental group). The dose of VIP was 5 pmol/kg/min.
(§4) In models i) and ii) 14 week old WKY rats were commenced on high salt diet or high salt diet plus L-NAME. They underwent operative insertion of an Alzet minipump for infusion of VIP or vehicle. After 4 weeks the rats were anaesthetised and the hearts harvested. Myocardial VIP and myocardial fibrosis were quantitated.
(§5) Myocardial VIP concentrations and myocardial fibrosis were quantitated.
as §1

[2] = tested on: WKY rat fed a high salt diet and given L-NAME; assay: VIP infusion in model of myocardial fibrosis: high salt diet plus L-NAME; type: in vivo
Description: as §2, §3, §4, §5, §1

[3] = tested on: WKY rats with diabetes induced by streptozotocin injection; assay: VIP infusion in model of myocardial fibrosis: streptozotocin diabetes; type: in vivo, rat; details: VIP 5 pmol/kg/min for 4 weeks after 8 weeks of diabetes; FIG. 6
Description: as §2, §3
In model iii) rats were injected with streptozotocin 60 mg/kg at 14 weeks of age. After 8 weeks the diabetic rats were randomised to VIP infusion (5 pmol/kg/min) (SEQ ID No. 1) or no treatment. VIP was administered as above. […]
as §5, §1

isolated rat heart = details: heart perfused with VIP before ischaemia and reperfusion; cited from earlier work
[4] = tested on: isolated trabeculae from human hearts; details: atria and ventricles of hearts from previously healthy individuals; cited from earlier work
normal heart = details: cited from earlier work
[5] = tested on: WKY rats on high salt diet; assay: Effect of VIP fragments on myocardial fibrosis; type: in vivo, rat; details: for degree of myocardial fibrosis: 5 pmol/kg/min for 4 weeks via Alzet minipump, compared with vehicle control, Masson Trichrome sections; for effectiveness on myocardial fibrosis relative to VIP: all peptides 5 pmol/kg/min for 4 weeks, FIGS. 8 to 10
Text: To determine whether smaller VIP related peptides had any of the biological activities of the complete VIP molecule, particularly in reducing myocardial fibrosis, the degree of myocardial fibrosis after treatment with VIP(1-12) (SEQ ID No. 2) at 5 pmol/kg/min and VIP (6-28) (SEQ ID No. 3) at 5 pmol/kg/min for 4 weeks via Alzet minipump was compared with the complete VIP (5 pmol/kg/min) (SEQ ID No. 1) and vehicle control. The VIP fragments were purchased from Auspep (Melbourne, Australia).
Briefly, 14 week old WKY rats were commenced on high salt diet as described earlier. They underwent operative insertion of an Alzet minipump for infusion of VIP peptide or vehicle. After 4 weeks the rats were anaesthetised, the hearts harvested and myocardial fibrosis quantitated on Masson Trichrome sections using Image Pro Plus Version 5 (Cybernetics). […] FIGS. 8 to 10 show the results of these studies.

Row | Molecule | myocardial fibrosis index (SHR and WKY rats) | difference between mean myocardial VIP concentrations after VIP or control infusion (VIP uptake by the heart) (WKY rats; VIP 10 pmol/kg/min for one hour, low, intermediate, high salt diet or high salt diet plus L-NAME, FIG. 1) | uptake of VIP by the heart from the plasma (WKY rats; acute infusion experiments in animal models with differing levels of fibrosis) | regression of existing myocardial fibrosis ([1]; VIP 5 pmol/kg/min 4 weeks, compared with untreated 14 week old rats, FIG. 4) | myocardial fibrosis index ([1]; VIP 5 pmol/kg/min for 4 weeks via Alzet minipump vs vehicle control, FIG. 2) | myocardial content of VIP ([1]; after four week intravenous infusion of VIP or vehicle control, FIG. 7A) | regression of existing myocardial fibrosis ([2]; VIP 5 pmol/kg/min 4 weeks, compared with untreated 14 week old rats, FIG. 5) | myocardial fibrosis index ([2]; VIP 5 pmol/kg/min for 4 weeks via Alzet minipump vs vehicle control, L-NAME 10 mg/kg/day, FIG. 3) | myocardial content of VIP ([2]; after four week intravenous infusion of VIP or vehicle control, FIG. 7B) | regression of existing myocardial fibrosis [3] | myocardial function (left ventricular functions, coronary flow, tissue injury) (isolated rat heart) | ionotropic effect [4] | uptake of injected VIP by the heart (normal heart) | degree of myocardial fibrosis [5] | effectiveness on myocardial fibrosis relative to VIP [5]
1 | CC[C@H](C)[C@H](NC(=O)[C@H](CO)NC(=O)[C@H](CC(N)=O)NC(=O)[C@H](CC(C)C)NC(=O)[C@H](Cc1ccc(O)cc1)NC(=O)[C@H](CCCCN)NC(=O)[C@H](CCCCN)NC(=O)[C@@H](NC(=O)[C@H](C)NC(=O)[C@H](CCSC)NC(=O)[C@H](CCC(N)=O)NC(=O)[C@H](CCCCN)NC(=O)[C@H](CCCNC(=N)N)NC(=O)[C@H](CC(C)C)NC(=O)[C@H](CCCNC(=N)N)NC(=O)[C@@H](NC(=O)[C@H](Cc1ccc(O)cc1)NC(=O)[C@H](CC(N)=O)NC(=O)[C@H](CC(=O)O)NC(=O)[C@@H](NC(=O)[C@H](Cc1ccccc1)NC(=O)[C@@H](NC(=O)[C@H](C)NC(=O)[C@H](CC(=O)O)NC(=O)[C@H](CO)NC(=O)[C@@H](N)Cc1c[nH]cn1)C(C)C)[C@@H](C)O)[C@@H](C)O)C(C)C)C(=O)N[C@@H](CC(C)C)C(=O)N[C@@H](CC(N)=O)C(N)=O [VIP] | significantly lower | As fibrosis worsens the amount of VIP taken up by the heart increases; also recorded: increase as the degree of fibrosis increased | more avid with increasing degrees of fibrosis; also recorded: the higher the level of fibrosis, the greater the uptake of VIP by the heart | regression of myocardial fibrosis | significantly lower | clear association between the degree of fibrosis and uptake of exogenous VIP | regression of myocardial fibrosis | significantly lower | clear association between the degree of fibrosis and uptake of exogenous VIP | regression of myocardial fibrosis | significant improvement of myocardial function | direct positive ionotropic effect | not taken up by the normal heart | – | –
2 | VIP(1-12): active fragment of VIP, residues 1-12, purchased from Auspep (HSDAVFTDNYTR; listed as Homo sapiens) | – | – | – | – | – | – | – | – | – | – | – | – | – | decreased the degree of myocardial fibrosis | approximately ⅓
3 | VIP(6-28): active fragment of VIP, residues 6-28, purchased from Auspep (FTDNYTRLRKQMAVKKYLNSILN; listed as Homo sapiens) | – | – | – | – | – | – | – | – | – | – | – | – | – | decreased the degree of myocardial fibrosis | as effective as VIP
